Patent US20060063759A1, “Tricyclic steroid hormone nuclear receptor modulators” (priority 2002, published 2006)

Legend:
human MR = molecular target: T1, human MR (Homo sapiens, UniProt P08235); test: Mineralocorticoid Receptor Binding Assay ([3H]-aldosterone); conditions: [3H]-aldosterone binding, human MR expressed in Sf9 cells; read-out: MR Ki
T1 construct: The full length human MR gene is cloned from a human kidney or human brain cDNA library; His tag from the pAcHLT vector (own knowledge); made in house; host or cells: Sf9 insect cells (baculovirus, pAcHLT transfer vector)
T1 sequence (P08235 1-984): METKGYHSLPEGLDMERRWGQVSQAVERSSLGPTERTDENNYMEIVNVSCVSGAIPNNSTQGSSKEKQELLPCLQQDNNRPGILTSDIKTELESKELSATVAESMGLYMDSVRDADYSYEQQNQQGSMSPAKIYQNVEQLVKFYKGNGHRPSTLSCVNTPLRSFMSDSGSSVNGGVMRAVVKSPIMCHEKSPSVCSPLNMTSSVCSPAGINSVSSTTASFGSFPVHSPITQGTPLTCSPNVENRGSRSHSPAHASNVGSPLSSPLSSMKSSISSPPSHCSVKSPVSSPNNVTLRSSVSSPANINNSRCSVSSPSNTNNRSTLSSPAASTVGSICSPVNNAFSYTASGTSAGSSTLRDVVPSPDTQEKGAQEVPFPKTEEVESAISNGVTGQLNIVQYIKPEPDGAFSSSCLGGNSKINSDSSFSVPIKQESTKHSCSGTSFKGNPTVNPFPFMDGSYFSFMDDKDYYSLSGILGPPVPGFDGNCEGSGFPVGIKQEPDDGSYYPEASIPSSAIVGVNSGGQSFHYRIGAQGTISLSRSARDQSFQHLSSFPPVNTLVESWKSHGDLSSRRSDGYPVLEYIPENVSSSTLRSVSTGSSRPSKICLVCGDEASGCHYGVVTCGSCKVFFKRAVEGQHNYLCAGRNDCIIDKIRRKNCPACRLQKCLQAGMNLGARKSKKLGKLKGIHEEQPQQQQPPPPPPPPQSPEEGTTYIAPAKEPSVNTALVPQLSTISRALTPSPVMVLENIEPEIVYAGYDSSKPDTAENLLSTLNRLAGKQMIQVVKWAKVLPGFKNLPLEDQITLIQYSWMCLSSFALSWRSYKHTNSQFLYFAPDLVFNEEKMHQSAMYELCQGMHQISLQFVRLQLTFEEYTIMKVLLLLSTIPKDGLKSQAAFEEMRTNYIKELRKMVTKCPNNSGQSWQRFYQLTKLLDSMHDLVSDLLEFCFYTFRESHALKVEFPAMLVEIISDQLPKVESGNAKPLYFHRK
In short: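 Lysate supernatant of Sf9 cells expressing full-length human MR (20-25 μg protein) was incubated with 0.5 nM [3H]-aldosterone and test compound in molybdate/Tris/phosphate/glycerol buffer, pH 7.5, ~16 h at 4 °C. Bound ligand was filtered and counted by scintillation; IC50 is the concentration halving [3H]-aldosterone binding.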

glucocorticoid receptor = molecular target: T2, glucocorticoid receptor (Homo sapiens, UniProt P04150); test: Glucocorticoid Receptor Binding Assay ([3H]-dexamethasone, A549 cell extract); conditions: [3H]-dexamethasone binding, read-out: GR Ki
T2 construct: containing 50-200 ug of A549 cell extract and 1.86 nM [^3H]-dexamethasone; host or cells: A549 human lung epithelial cells (sonicated cell extract)
T2 sequence (P04150 1-777): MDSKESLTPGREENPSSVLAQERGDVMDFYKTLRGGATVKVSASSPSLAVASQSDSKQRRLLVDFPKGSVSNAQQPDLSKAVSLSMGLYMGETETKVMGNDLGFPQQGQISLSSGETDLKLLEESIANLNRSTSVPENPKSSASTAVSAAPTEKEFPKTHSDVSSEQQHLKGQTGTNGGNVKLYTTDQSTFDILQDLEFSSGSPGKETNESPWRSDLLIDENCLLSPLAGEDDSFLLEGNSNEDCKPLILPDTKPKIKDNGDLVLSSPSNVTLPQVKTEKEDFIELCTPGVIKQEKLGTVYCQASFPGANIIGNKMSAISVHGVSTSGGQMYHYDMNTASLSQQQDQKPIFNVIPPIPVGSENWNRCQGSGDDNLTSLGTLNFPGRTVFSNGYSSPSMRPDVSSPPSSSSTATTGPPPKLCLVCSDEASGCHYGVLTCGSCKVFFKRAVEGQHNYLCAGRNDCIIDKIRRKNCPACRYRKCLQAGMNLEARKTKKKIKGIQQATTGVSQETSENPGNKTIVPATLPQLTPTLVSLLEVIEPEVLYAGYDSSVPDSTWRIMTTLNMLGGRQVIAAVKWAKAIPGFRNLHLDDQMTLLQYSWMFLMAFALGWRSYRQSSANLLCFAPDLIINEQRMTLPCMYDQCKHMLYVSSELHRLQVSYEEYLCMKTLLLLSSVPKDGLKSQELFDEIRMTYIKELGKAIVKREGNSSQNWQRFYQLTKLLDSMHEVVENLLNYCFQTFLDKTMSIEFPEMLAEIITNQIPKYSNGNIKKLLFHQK
In short: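 A549 cell extract (50–200 ug) incubated with 1.86 nM [3H]-dexamethasone and test compound for 16 h at 4 °C in Tris-HCl pH 7.2 buffer with glycerol and molybdate. Unbound radioligand removed by dextran-coated charcoal, then supernatant bound counts measured by scintillation.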

Row | Compound | Ki (human MR) [nM] | Ki (glucocorticoid receptor) [nM]
1 | CS(=O)(=O)Nc1cccc(C=C2c3ccc(O)cc3CCc3cc(O)ccc32)c1 [Example 192, N-[3-(2,8-Dihydroxy-10,11-dihydro-dibenzo[a,d]cyclohepten-5-ylidenemethyl)-phenyl]-methanesulfonamide] | < 500 | < 500
2 | COc1ccc2c(c1)CCc1cc(OC)ccc1C2=Cc1cccc(O)c1 [Example 193, 3-(2,8-Dimethoxy-10,11-dihydro-dibenzo[a,d]cyclohepten-5-ylidenemethyl)-phenol] | < 500 | < 500
3 | Oc1cccc(C=C2c3ccc(O)cc3CCc3cc(O)ccc32)c1 [Example 194, 5-(3-Hydroxy-benzylidene)-10,11-dihydro-5H-dibenzo[a,d]cycloheptene-2,8-diol] | < 500 | < 500
4 | CS(=O)(=O)Nc1cccc(/C=C2\c3ccccc3CCc3cc(OCCN4CCOCC4)ccc32)c1 [Example 196, N-{3-[2-(2-Morpholin-4-yl-ethoxy)-10,11-dihydro-dibenzo[a,d]cyclohepten-5-ylidenemethyl]-phenyl}-methanesulfonamide] | < 500 | < 500
5 | CS(=O)(=O)Nc1cccc(C=C2c3cccc(F)c3CCc3c(F)cccc32)c1 [Example 201, N-[3-(1,9-Difluoro-10,11-dihydro-dibenzo[a,d]cyclohepten-5-ylidenemethyl)-phenyl]-methanesulfonamide] | < 500 | < 500
6 | CS(=O)(=O)Nc1cccc(C=C2c3ccccc3CCc3c(Cl)cccc32)c1 [Example 205(b), N-[3-(1-Chloro-10,11-dihydro-dibenzo[a,d]cyclohepten-5-ylidenemethyl)-phenyl]-methanesulfonamide] | < 500 | < 500
7 | CCS(=O)(=O)Nc1cccc(C=C2c3ccccc3CCc3c(Cl)cccc32)c1 [Example 208(b), Ethanesulfonic acid [3-(1-chloro-10,11-dihydro-dibenzo[a,d]cyclohepten-5-ylidenemethyl)-phenyl]-amide] | < 500 | < 500
8 | O=c1[nH]c2cc(C=C3c4ccccc4CCc4ccccc43)ccc2o1 [Example 216, 5-(10,11-Dihydro-dibenzo[a,d]cyclohepten-5-ylidenemethyl)-3H-benzooxazol-2-one] | < 500 | < 500
9 | C(=C1c2ccccc2CCc2ccccc21)c1ccc2ocnc2c1 [Example 217, 5-(10,11-Dihydro-dibenzo[a,d]cyclohepten-5-ylidenemethyl)-benzooxazole] | < 500 | < 10000
10 | Cc1nc2cc(C=C3c4ccccc4CCc4ccccc43)ccc2o1 [Example 218, 5-(10,11-Dihydro-dibenzo[a,d]cyclohepten-5-ylidenemethyl)-2-methyl-benzooxazole] | < 500 | < 1000
11 | C(=C1c2ccccc2CCc2ccccc21)c1ccc2cc[nH]c2c1 [Example 219, 6-(10,11-Dihydro-dibenzo[a,d]cyclohepten-5-ylidenemethyl)-1H-indole] | < 500 | < 1000
12 | C(=C1c2ccccc2CCc2ccccc21)c1cccc2[nH]ccc12 [Example 220, 4-(10,11-Dihydro-dibenzo[a,d]cyclohepten-5-ylidenemethyl)-1H-indole] | < 500 | < 10000
13 | O=c1[nH]c2cc(/C=C3/c4ccccc4CCc4c(Cl)cccc43)ccc2o1 [Example 221(a)] | < 500 | < 500
14 | O=c1[nH]c2cc(/C=C3\c4ccccc4CCc4c(Cl)cccc43)ccc2o1 [Example 221(b)] | < 500 | < 500
15 | O=c1[nH]c2cc(C=C3c4ccccc4CCc4cc(Cl)ccc43)ccc2o1 [Example 222(a), 5-(2-Chloro-10,11-dihydro-dibenzo[a,d]cyclohepten-5-ylidenemethyl)-3H-benzooxazol-2-one] | < 500 | < 500
16 | O=c1[nH]c2ccc(C=C3c4ccccc4CCc4ccccc43)cc2[nH]1 [Example 223, 5-(10,11-Dihydro-dibenzo[a,d]cyclohepten-5-ylidenemethyl)-l,3-dihydro-benzoimidazol-2-one] | < 500 | < 10000
17 | O=C1Cc2c(C=C3c4ccccc4CCc4ccccc43)cccc2N1 [Example 224, 4-(10,11-Dihydro-dibenzo[a,d]cyclohepten-5-ylidenemethyl)-1,3-dihydro-indol-2-one] | < 500 | < 500
18 | C(=C1c2ccccc2CCc2ccccc21)c1ccccc1-c1cnccn1 [Example 225, 2-[2-(10,11-Dihydro-dibenzo[a,d]cyclohepten-5-ylidenemethyl)-phenyl]-pyrazine] | < 500 | < 10000
19 | C(=C1c2ccccc2CCc2ccccc21)c1ccccc1-c1ccccn1 [Example 227, 2-[2-(10,11-Dihydro-dibenzo[a,d]cyclohepten-5-ylidenemethyl)-phenyl]-pyridine] | < 500 | < 1000
20 | C(=C1c2ccccc2CCc2ccccc21)c1ccccc1-c1cccnc1 [Example 228, 3-[2-(10,11-Dihydro-dibenzo[a,d]cyclohepten-5-ylidenemethyl)-phenyl]-pyridine] | < 500 | < 1000
21 | C(=C1c2ccccc2CCc2ccccc21)c1cccc(-c2ccn[nH]2)c1 [Example 229, 5-[3-(10,11-Dihydro-dibenzo[a,d]cyclohepten-5-ylidenemethyl)-phenyl]-1H-pyrazole] | < 500 | < 1000
22 | Nc1cccc(C=C2c3ccccc3CCc3ccccc32)n1 [Example 230, 6-(10,11-Dihydro-dibenzo[a,d]cyclohepten-5-ylidenemethyl)-pyridin-2-ylamine] | < 1000 | < 10000
23 | CS(=O)(=O)Nc1cccc(C=C2c3ccccc3CCc3ccccc32)n1 [Example 231, N-[6-(10,11-Dihydro-dibenzo[a,d]cyclohepten-5-ylidenemethyl)-pyridin-2-yl]-methanesulfonamide] | < 500 | < 500
24 | CS(=O)(=O)Nc1cncc(C=C2c3ccccc3CCc3ccccc32)n1 [Example 233, N-[6-(10,11-Dihydro-dibenzo[a,d]cyclohepten-5-ylidenemethyl)-pyrazin-2-yl]-methanesulfonamide] | < 500 | < 10000
25 | Oc1cncc(C=C2c3ccccc3CCc3ccccc32)c1 [Example 236, 5-(10,11-Dihydro-dibenzo[a,d]cyclohepten-5-ylidenemethyl)pyridin-3-ol] | < 500 | < 500
26 | C(=C1c2ccccc2CCc2ccccc21)c1cn[nH]c1 [Example 237, 4-(10,11-Dihydro-dibenzo[a,d]cyclohepten-5-ylidenemethyl)-1H-pyrazole] | < 500 | < 10000
